Laboratory results taken from article PMC10615883 (Angewandte Chemie (International ed. in English), 2023).

Molecular target: Aβ40 aggregates (amyloid beta) (Homo sapiens, UniProt P05067)
Assay: fluorescence titration with Aβ aggregates
Assay type: binding

Aβ40 aggregates (amyloid beta), sequence (P05067 672-711 limits assumed): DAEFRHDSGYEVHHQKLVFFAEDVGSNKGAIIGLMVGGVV

CRANAD-147
Kd: 2890 ± 430 nM
